These results are taken from patent publication EP0144170B1, “Biosynthesis of unnatural cephalosporins” (QUEEN'S UNIVERSITY AT KINGSTON, priority 1983, dated 1985).

Values joined by “and” are separate entries in the source; they are usually repeats but may differ in a detail not shown here. Identical values can stand only once.

In the test the test system is Escherichia coli. ess. Description: Agar diffusion bioassay of diluted original antibiotic solutions (Example 9). The format is cell-based. On the set-up: unit not given here. The settings on record: in duplicate, indicator organism Escherichia coli. ess. Here is the method:
Example 2(a) above was repeated using SCV (15) as the starting material. [drawing 27] Antibiotic in reaction mixtures was estimated by the agar diffusion method. Cyclization reaction mixtures were bioassayed using Micrococcus luteus ATCC 9341 and Escherichia coli Ess as indicator organisms. Ring expansion reaction mixtures were bioassayed using E. coli Ess as indicator organism in agar plates supplemented with penicillinase at 2 x 10^5 units/ml.
One hour after the antibiotics were administered blood was collected from the rats into sterile citrate containing syringes. Blood samples were centrifuged to sediment red blood cells and 20 micro litre amounts of plasma were bioassayed in duplicate using Escherichia coli. ess. as the indicator organism. Original antibiotic solutions were also diluted and bioassayed in duplicate.
A general note: In agar diffusion tests the substance spreads into inoculated agar from a disc or well.

As to `CC1=C(C(=O)O)N2C(=O)[C@@H](NC(=O)CSCC(N)C(=O)O)[C@H]2SC1` (stereo partly shown) [(17), Carboxymethylcysteinyl-Desacetoxycephalosporin C], the “bioassay of original antibiotic solution” value (1 microgram per millilitre) is 17.5 and 17.0; the “bioassay of original antibiotic solution” value (10 micrograms per millilitre) is 33.
For the compound `CC(=O)OCC1=C(C(=O)[O-])N2C(=O)[C@@H](NC(=O)CCCC(N)C(=O)O)[C@H]2SC1.[Na+]` (stereo partly shown) [Na-Ceph-C, reference compound], the “bioassay of original antibiotic solution” value is, setting by setting: (1 microgram per millilitre) 8.8; (10 micrograms per millilitre) 23.5.
